Measured values as given in ChEMBL document CHEMBL4806962, “Methods and Compositions for Treating Cancer” (2020).
Activity calls are given as the source filed them. No cut-off for these calls is given here.

Key:
Splenocyte = assay: Effects of compound on IL-2 production in anti-CD3/CD28-stimulated wild-type mouse spleenocytes assessed as fold increase in IL-2 level at 0.3 to 1 uM after 2 days; type: functional; conditions: dose 0.3-1 µM; time 2 day
[1] = molecular target: T1, Probable G-protein coupled receptor 174 (Homo sapiens, UniProt Q9BXC1); assay: Inverse agonist activity at GPR174 in anti-CD3/CD28-stimulated human PBMCs assessed as increase in FoxP3-positive Helios-negative T cells at 100 uM after 3 days by flow cytometric analysis; type: functional, tissue-based; conditions: PBMC, filed as inverse agonist, time 3.0 day
T1 sequence (Q9BXC1 whole entry): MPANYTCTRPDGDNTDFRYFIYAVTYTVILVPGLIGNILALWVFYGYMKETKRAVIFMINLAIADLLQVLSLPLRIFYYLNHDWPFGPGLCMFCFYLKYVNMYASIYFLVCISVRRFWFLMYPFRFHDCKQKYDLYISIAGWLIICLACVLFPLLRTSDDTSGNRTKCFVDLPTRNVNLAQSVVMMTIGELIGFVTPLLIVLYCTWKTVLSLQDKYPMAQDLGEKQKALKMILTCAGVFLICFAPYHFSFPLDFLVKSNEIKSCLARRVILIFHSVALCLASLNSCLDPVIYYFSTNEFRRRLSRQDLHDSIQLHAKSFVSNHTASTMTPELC

PBMC [2] = assay: Effect of compound on human PBMCs assessed as reduction in AREG expression in CD4-positive T cells after 1 day by flow cytometric analysis; type: functional, cell-based; conditions: dose 1.25-5 µM
PBMC [3] = assay: Effects of compound on IL-17A production in anti-CD3/CD28-stimulated human PBMCs assessed as fold decrease in IL-17A level at 30 uM after 2 days by ELISA; type: functional, tissue-based; conditions: time 2.0 day
[4] = molecular target: T1, Probable G-protein coupled receptor 174; assay: Inverse agonist activity at human GPR174 assessed as fold decrease in Gs signalling activity by CRA; type: functional; conditions: filed as inverse agonist
[5] = Effects of compound on anti-CD3/CD28-stimulated human PBMCs assessed as CD4-positive cells population at 10 uM after 4 hrs by flow cytometric analysis; type: functional, PBMC
PBMC [6] = assay: Effect of compound on human PBMCs assessed as reduction in TGIT expression in CD8-positive T cells after 1 day by flow cytometric analysis; type: functional, cell-based; conditions: dose 1.25-5 µM
[7] = molecular target: T1, Probable G-protein coupled receptor 174; assay: Antagonist activity at GPR174 (unknown origin) expressed in HEK293 cells assessed as inhibition of PS-induced GPR174 signaling at 1 to 2 uM incubated for 15 mins by GloSensor assay; type: functional, cell-based; set-up: scale not given: the % may be the effect or the level left; conditions: filed as antagonist, dose 1-2 µM
[8] = Ratio of FC for induction of INF-gamma production in anti-CD3/CD28-stimulated human PBMCs at 1 uM after 24 hrs in presence of PBF-509 and MRS-1754 to FC for induction of INF-gamma production in anti-CD3/CD28-stimulated human PBMCs at 1 uM after 24 hrs in presence of PBF-509 and absence of MRS-1754; type: functional, PBMC

Activity [1]: Active
fold change (FC) [4]: 0.2
Activity [7]: 100%
Compound: CC1CCN(c2cc(N3CCN(S(=O)(=O)c4ccccc4)CC3)c([N+](=O)[O-])cc2F)CC1
fold change (FC) (Splenocyte): 10
Activity (PBMC [2]): Dose-Dependent Effect
Activity (PBMC [3]): Active
Activity [5]: 46.2%
Activity (PBMC [6]): Dose-Dependent Effect
Ratio [8]: 1
